Test results published in US6849405B2, “Translation enhancer element of the human amyloid precursor protein gene” (The Brigham and Women's Hospital, Inc., priority 1997, dated 2005).
Several values for one entry are separate records, joined by “and”; a condition that tells them apart may be missing. Identical values can stand only once.

How the values were obtained:
[1] = tested on: APP-mRNA; assay: Northern blot of APP-mRNA, primary astrocytes; format: cell-based, human
Method: (§1) Total RNA (10 μg) was extracted from primary astrocytes and astrocytoma cells with a RNA-STAT kit (Tel-Test). RNA samples were denatured in 50% formamide/2.2 M formaldehyde/20 mM MOPS/5 mM sodium acetate/0.5 mM EDTA, pH 7.4, at 60° C. for 10 minutes, electrophoresed on 1.0% agarose-formaldehyde gels, blotted onto Hybond-N filters and immobilized by UV crosslinking and heating filters to 80° C. Filters were prehybridized for 3 hours and hybridized overnight in a solution consisting of 50% formamide, […] denatured salmon sperm DNA, 5×SSC, 0.1% sodium dodecyl sulfate and 5×Denhardt's solution. Following hybridization, filters were washed twice for a total of 1 hour in 2×SSC/0.2% sodium dodecyl sulfate at room temperature and twice each for a total of 1 hour in 0.5×SSC/0.1% sodium dodecyl sulfate at 55° C. Equal loading was verified by ethidium bromide staining, non-specific hybridization of the ACT probe to the 28S rRNA, and by standardized hybridization to the GAPDH cDNA probe as an internal standard. The APP cDNA probe corresponded to the unique internal 1 kb fragment gel purified from the 3 kb APP cDNA (Kang et al. Nature 325: 733 (1987)), the ACT cRNA probe to a PstI/SacI fragment (536-943) in the human ACT cDNA (Chandra, et al., Biochemistry 22: 5055 (1983)) and the GAPDH probe to the human GAPDH gene (Tokunaga, et al., Cancer Res. 47: 5616 (1987)).

[2] = tested on: alpha-1 antichymotrypsin (ACT) mRNA; assay: Northern blot of ACT-mRNA, primary astrocytes; format: cell-based, human
Method: as §1

[3] = tested on: APP mRNA 5′ UTR (pSV2(APP)CAT reporter); assay: CAT reporter activity in pSV2(APP)CAT-transfected astrocytoma cells; format: cell-based, human; conditions: for increase in CAT activity, maximal: pSV2(APP)CAT-transfected astrocytoma cells
Method: The pSV2(APP)CAT construct contains the APP gene 5′ UTR in between the SmaI and the NruI sites (+52 nt and +142 nt from the 5′ cap site respectively). pSV2(APP)CAT was prepared by two steps of subcloning. (1) A 3 kb SmaI-HindIII fragment containing the APP gene, including the coding region and a segment of the 3′ UTR was subcloned into compatible StuI-HindIII sites unique to the 5′ UTR of the CAT gene in the pSV2CAT expression vector. (2) The APP gene fragment in between the NruI and HindIII sites was removed from the construct. The restriction sites were then blunt-ended and religated. In the pSV2(APP)CAT transfectants, 90 nt of the APP gene 5′ UTR were expressed as part of a chimeric […] 5′ leader in the 1.5 kb APP/CAT transcript. The pSV2CAT construct contains the 5′ end of the CAT gene inserted into the unique polylinker site in pBluescript. A 250 nt HindIII/EcoRI fragment from the CAT gene in pSV2CAT was subcloned into the pBS vector (Stratagene). The CAT gene fragment codes for 36 nt of the CAT gene 5′ UTR and 218 bp of the 5′ end of the coding sequence of the CAT gene.
(§2) Astrocytoma and neuroblastoma cells were transfected with pSV2CAT or pSV2(APP)CAT by lipofection. Briefly, lipofectamine reagent (Boehringer) was added to DMEM (without serum) and allowed to sit 30 minutes at room temperature. Plasmids (10 μg) in an equal volume of DMEM were then added, and, after sitting for 45 minutes at room temperature, the lipid/DNA solution was added to 60% confluent cells on 100×20 mm cell culture plates. After 4 hours, this solution was removed, and the cells were washed twice in DMEM (without serum). Fresh DMEM medium (containing 10% fetal calf serum) was added. At this time, treatments were administered which included: (1) 0.5 ng/ml IL-1α; (2) 0.5 ng/ml IL-1β; (3) 5 μM Fe2TF (holo-transferrin); and (4) unstimulated controls. […]
(§3) After harvesting, cells were resuspended in 100 μl 0.25 M Tris, pH 7.8, and subjected to three cycles of freezing (liquid nitrogen) and […] (37° C.) to lyse cells. […] Protein concentration was determined by a Biorad assay, and exactly 20 μg of lysate was added to a CAT reaction mix containing 50 μl 1M Tris, pH 7.8, 20 μl acetylcoenzyme-A (3.5 mg/ml) and […] ^14C-labeled chloramphenicol (25 mCi/ml). […] For quantitative analysis, the areas on the TLC plates which aligned with dots on the film were excised and the radioactivity was counted in 5 ml of scintillation cocktail (Econofluor) using a scintillation counter (Hewlett Packard). In some experiments, CAT activity was measured by counting the amount of CAT reaction product diffusing into liquid scintillation fluid as described previously (Rogers, et al., Nucl. Acid Res. 22:2678 (1994)). […]

[4] = tested on: Apo-E protein synthesis; assay: Apo-E protein synthesis (internal standard), primary astrocytes; format: cell-based; conditions: primary human astrocytes
Method: Secretion and labeling of APP(s) (protease-nexin-2) from primary astrocytes by IL-1 was measured in a separate set of experiments. Medium from 100 mm dishes (10 ml) of astrocyte cultures was collected after a 2-hour pulse labeling with 200 μCi/ml [^35S]-methionine. APP in 5 ml of precleared medium was immunoprecipitated using a 1:1500 dilution of rabbit polyclonal serum specific for amino acids 595-611 of APP (R1736, D. Selko). Apolipoprotein E was immunoprecipitated from 5 ml of culture supernatant using a 1:200 dilution of a polyclonal antiserum (Chemicon).
In all labeling experiments, immunoprecipitated protein was collected by the binding of antibody-labeled antigen complexes to Protein A Sepharose™ beads. Immunoprecipitated samples were applied to 10-20% tris-tricine gels (Novex) and the samples were electrophoresed in tris-tricine buffer according to the manufacturer's instructions. The gels were fixed with 25% methanol, […] for 1 hour, treated with fluorographic reagent (Amplify, Amersham) for 30 minutes, dried, and exposed to X-omat Kodak film overnight at −80° C.

[5] = tested on: pSV2CAT parental vector; assay: CAT reporter activity in astrocytoma cells transfected with parental vector pSV2CAT; format: cell-based, human
Method: as §2
as §3, with “Packard).” for “Packard). In some experiments, CAT activity was measured by counting the amount of CAT reaction product diffusing into liquid scintillation fluid as described previously (Rogers, et al., Nucl. Acid Res. 22:2678 (1994)).”

[6] = tested on: APP-mRNA; assay: Northern blot of APP-mRNA, astrocytoma cells; format: cell-based, human; conditions: average of four Northern blot experiments
Method: as §1

In the case of interleukin-1α [IL-1α], the “APP-mRNA levels (Northern blot, densitometry)” value [1] is reported as “unchanged”, the “increase in ACT-mRNA levels (densitometry)” value [2] is reported as “greater than 10 fold” and the “increase in CAT activity, average” value ([3]; pSV2(APP)CAT transfectants, matching experiments, average) is reported as 2.3 fold. For the same substance, the “increase in CAT activity, maximal” value [3] was 3 fold and 4 fold and the ApoE protein synthesis [4] was “no increase”.

With interleukin-1β [IL-1β] the “effect on CAT activity, parental vector” value [5] was “no effect”, the “enhancement of CAT activity, parallel transfection” value ([3]; pSV2(APP)CAT transfectants, parallel to the pSV2CAT transfection) was 3 fold and the “increase in CAT activity, maximal” value [3] was 4 fold. For the same substance, the ApoE protein synthesis [4] was “no increase” and the “increase in steady-state levels of APP-mRNAs standardized to GAPDH-mRNA” value [6] was 30%.
